From US7326722B2, “N-[Phenyl(piperidin-2-yl)methyl]benzamide derivatives, their preparation and their application in therapy” (Sanofi-Aventis, priority 2002, dated 2008)
Counter-ions that a name gives are not always drawn.

Structure (SMILES) | melting point [°C]
C[N+]1([O-])CCCCC1C(NC(=O)c1cccc(C(F)(F)F)c1Cl)c1ccccc1 (centres unmarked) (as salt: HCl) [Compound No. 69] | 126 to 128
C[N+]1([O-])CCCCC1C(NC(=O)c1cccc(C(F)(F)F)c1Cl)c1ccccc1 (centres unmarked) (as salt: HCl) [Compound No. 70] | 100 to 102
